In ChEMBL document CHEMBL1201862, “PubChem BioAssay data set” (2004):
The source made the active and inactive calls.

What was measured:
Assay type in all cases: functional
[1] = target: Tyrosine-protein kinase Lck (Homo sapiens, UniProt P06239);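 further: lck was assayed as one member of a kinase panel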
[2] = target: Mast/stem cell growth factor receptor Kit (Homo sapiens, UniProt P10721);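 further: KIT entry within a kinase panel assay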
[3] = target: Tyrosine-protein kinase Lyn (Homo sapiens, UniProt P07948);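 further: lyn as one member of a kinase panel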
[4] = target: Tyrosine-protein kinase Blk (Homo sapiens, UniProt P51451);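 further: obtained as one member of a kinome-wide kinase assay panel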
Sequence of Tyrosine-protein kinase Blk (P51451 whole entry): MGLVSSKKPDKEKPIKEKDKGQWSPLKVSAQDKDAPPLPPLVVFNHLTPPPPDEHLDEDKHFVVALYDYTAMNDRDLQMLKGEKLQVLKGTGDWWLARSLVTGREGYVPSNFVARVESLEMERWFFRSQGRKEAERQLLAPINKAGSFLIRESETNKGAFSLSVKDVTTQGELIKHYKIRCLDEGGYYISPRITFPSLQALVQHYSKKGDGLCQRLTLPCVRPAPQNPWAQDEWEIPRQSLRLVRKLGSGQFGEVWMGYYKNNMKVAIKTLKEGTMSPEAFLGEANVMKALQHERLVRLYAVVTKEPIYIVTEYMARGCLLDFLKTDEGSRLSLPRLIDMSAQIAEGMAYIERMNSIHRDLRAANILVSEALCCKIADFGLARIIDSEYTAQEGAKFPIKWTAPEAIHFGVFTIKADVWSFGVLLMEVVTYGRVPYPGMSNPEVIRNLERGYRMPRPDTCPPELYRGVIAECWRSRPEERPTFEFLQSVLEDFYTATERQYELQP

[5] = target: Proto-oncogene tyrosine-protein kinase Src (Homo sapiens, UniProt P12931);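 further: SRC entry within a kinome-wide kinase profiling panel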
[6] = target: Receptor-type tyrosine-protein kinase FLT3 (Homo sapiens, UniProt P36888);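 further: FLT3 was tested as one member of a kinome-wide kinase panel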
Sequence of Receptor-type tyrosine-protein kinase FLT3 (P36888 whole entry): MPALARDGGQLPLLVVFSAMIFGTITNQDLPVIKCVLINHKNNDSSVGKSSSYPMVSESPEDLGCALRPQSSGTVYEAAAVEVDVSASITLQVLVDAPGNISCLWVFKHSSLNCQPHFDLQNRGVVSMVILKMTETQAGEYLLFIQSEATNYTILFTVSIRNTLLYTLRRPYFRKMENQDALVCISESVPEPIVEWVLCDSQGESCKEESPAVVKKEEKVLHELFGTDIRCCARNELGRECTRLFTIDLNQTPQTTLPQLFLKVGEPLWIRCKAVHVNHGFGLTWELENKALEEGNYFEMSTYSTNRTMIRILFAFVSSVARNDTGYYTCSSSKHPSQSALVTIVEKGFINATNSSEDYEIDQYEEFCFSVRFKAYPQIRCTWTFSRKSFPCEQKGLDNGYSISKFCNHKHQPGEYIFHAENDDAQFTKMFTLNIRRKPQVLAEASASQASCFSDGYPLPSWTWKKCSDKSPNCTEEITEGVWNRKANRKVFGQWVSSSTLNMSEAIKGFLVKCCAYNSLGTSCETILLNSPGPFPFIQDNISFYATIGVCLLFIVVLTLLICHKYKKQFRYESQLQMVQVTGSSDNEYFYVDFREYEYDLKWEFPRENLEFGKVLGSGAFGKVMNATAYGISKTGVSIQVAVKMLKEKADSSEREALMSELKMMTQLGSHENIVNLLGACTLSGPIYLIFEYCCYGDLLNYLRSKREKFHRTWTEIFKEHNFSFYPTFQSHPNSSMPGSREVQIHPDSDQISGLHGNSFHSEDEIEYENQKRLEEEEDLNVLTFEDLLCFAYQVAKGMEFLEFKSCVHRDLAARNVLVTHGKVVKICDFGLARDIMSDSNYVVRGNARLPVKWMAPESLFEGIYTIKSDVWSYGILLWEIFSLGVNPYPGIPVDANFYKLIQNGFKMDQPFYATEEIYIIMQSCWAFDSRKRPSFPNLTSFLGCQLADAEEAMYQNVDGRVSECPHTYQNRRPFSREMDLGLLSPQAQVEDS

[7] = target: Tyrosine-protein kinase ABL1 (Homo sapiens, UniProt P00519)
[8] = target: Vascular endothelial growth factor receptor 2 (Homo sapiens, UniProt P35968)
[9] = target: Vascular endothelial growth factor receptor 3 (Homo sapiens, UniProt P35916);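 further: value from a kinome-wide profiling panel, with FLT4 as the panel member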
[10] = target: Tyrosine-protein kinase Fyn (Homo sapiens, UniProt P06241)
[11] = target: Vascular endothelial growth factor receptor 1 (Homo sapiens, UniProt P17948);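 further: measured within a kinome-wide profiling panel, FLT1 as the panel member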
[12] = target: Macrophage colony-stimulating factor 1 receptor (Homo sapiens, UniProt P07333);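 further: value comes from the Navigating the Kinome screening panel, CSF1R member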
[13] = target: cAMP-dependent protein kinase catalytic subunit PRKX (Homo sapiens, UniProt P51817)
[14] = target: Inhibitor of nuclear factor kappa-B kinase subunit epsilon (Homo sapiens, UniProt Q14164); assay: Navigating the Kinome. Panel member name: IKBKE
Sequence of Inhibitor of nuclear factor kappa-B kinase subunit epsilon (Q14164 whole entry): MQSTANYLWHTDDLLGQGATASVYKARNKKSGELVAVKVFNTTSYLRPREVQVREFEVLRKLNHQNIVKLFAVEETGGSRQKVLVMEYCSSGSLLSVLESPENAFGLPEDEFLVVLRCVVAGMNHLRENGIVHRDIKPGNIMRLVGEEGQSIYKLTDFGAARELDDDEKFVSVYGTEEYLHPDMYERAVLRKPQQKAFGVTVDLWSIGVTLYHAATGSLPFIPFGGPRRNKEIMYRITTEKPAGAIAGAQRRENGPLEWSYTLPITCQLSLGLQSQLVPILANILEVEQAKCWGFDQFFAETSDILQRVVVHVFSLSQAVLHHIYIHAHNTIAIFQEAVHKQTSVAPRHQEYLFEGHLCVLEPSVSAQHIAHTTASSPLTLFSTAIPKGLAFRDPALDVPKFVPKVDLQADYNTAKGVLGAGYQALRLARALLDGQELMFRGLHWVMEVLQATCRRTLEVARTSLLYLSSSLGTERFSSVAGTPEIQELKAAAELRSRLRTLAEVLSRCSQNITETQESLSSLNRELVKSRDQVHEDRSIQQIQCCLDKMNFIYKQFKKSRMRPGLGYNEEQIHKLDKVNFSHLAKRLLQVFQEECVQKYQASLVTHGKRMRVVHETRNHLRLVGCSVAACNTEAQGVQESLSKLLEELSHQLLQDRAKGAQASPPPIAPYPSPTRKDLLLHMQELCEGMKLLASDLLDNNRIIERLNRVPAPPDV

[15] = target: ALK tyrosine kinase receptor (Homo sapiens, UniProt Q9UM73);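 further: ALK tested as one member of a kinase panel screen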
Sequence of ALK tyrosine kinase receptor (Q9UM73 whole entry): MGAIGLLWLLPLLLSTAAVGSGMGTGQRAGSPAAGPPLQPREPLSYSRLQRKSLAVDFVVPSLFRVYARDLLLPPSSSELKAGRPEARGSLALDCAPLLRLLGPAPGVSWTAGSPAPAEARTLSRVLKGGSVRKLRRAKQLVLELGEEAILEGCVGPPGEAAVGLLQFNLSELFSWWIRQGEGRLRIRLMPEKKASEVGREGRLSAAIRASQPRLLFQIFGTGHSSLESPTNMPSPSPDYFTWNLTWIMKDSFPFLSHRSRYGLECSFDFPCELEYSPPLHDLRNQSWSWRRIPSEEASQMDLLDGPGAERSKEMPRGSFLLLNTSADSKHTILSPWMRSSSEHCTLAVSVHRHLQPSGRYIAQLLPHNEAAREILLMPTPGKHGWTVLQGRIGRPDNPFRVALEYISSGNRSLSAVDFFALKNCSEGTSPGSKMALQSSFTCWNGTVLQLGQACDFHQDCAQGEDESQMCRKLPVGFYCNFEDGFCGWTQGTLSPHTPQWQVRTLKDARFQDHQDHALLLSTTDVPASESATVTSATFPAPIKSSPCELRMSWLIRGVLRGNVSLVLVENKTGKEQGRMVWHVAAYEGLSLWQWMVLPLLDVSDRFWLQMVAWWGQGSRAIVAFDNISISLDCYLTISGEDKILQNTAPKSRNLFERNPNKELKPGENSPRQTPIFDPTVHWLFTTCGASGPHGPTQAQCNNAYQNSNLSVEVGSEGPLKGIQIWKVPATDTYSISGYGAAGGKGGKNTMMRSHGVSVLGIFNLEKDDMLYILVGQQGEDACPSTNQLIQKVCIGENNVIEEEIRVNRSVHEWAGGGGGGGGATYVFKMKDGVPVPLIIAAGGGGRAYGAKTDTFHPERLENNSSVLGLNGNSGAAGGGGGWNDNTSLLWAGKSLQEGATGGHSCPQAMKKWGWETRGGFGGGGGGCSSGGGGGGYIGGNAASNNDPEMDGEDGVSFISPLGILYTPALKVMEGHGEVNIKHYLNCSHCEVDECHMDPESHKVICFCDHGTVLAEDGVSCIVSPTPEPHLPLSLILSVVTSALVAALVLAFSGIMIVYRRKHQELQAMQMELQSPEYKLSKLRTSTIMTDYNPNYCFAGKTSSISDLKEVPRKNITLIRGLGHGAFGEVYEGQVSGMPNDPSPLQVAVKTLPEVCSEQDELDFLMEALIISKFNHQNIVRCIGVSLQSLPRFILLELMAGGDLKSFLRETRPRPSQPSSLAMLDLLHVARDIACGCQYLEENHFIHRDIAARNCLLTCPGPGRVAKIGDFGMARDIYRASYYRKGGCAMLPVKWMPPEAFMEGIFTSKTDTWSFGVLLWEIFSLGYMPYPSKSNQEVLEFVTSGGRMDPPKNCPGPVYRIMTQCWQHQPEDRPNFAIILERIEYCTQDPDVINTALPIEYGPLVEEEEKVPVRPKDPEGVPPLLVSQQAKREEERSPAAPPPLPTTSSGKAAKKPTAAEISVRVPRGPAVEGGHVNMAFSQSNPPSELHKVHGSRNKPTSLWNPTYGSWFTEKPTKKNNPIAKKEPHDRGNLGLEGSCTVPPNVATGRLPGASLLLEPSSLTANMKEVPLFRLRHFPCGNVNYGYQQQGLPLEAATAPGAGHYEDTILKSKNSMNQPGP

[16] = target: Wee1-like protein kinase (Homo sapiens, UniProt P30291); assay: Navigating the Kinome. Panel member name: WEE1
Sequence of Wee1-like protein kinase (P30291 whole entry): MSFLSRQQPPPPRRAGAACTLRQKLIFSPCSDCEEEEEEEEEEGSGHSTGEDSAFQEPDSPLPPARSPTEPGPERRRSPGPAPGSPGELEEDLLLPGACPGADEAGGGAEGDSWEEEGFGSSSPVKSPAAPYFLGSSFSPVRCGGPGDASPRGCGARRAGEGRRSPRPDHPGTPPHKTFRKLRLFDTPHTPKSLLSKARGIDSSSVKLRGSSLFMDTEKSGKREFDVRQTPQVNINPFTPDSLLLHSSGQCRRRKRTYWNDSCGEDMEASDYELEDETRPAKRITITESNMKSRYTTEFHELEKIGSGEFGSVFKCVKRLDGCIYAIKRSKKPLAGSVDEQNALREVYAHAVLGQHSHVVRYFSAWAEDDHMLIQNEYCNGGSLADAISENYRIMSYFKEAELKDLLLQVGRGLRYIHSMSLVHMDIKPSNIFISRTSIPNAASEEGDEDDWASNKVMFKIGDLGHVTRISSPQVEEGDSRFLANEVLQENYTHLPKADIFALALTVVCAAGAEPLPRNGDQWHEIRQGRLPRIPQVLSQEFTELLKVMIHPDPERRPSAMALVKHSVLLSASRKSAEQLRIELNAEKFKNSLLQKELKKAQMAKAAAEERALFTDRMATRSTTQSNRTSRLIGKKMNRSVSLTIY

[17] = target: T1, Neuropeptides B/W receptor type 1 (Homo sapiens, UniProt P48145); assay: GPR7 antagonist potency, late-stage follow-up, cell-based, fluorescence, dose response, set 5 (AID 588566)
T1 sequence (P48145 whole entry): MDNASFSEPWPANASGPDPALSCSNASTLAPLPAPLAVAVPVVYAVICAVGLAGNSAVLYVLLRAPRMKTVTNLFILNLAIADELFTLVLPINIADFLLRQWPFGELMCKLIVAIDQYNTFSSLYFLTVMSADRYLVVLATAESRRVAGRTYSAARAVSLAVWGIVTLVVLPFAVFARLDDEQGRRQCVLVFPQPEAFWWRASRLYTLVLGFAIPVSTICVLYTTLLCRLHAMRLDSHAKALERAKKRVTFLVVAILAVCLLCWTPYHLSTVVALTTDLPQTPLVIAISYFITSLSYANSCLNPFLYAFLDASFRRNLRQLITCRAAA

[18] = target: Melanin-concentrating hormone receptor 1 (Homo sapiens, UniProt Q99705); assay: Late-stage fluorescence-based counterscreen for antagonists of the G-protein coupled receptor 7 (GPR7): cell-based dose response assay to identify antagonists of the melanin-concentrating hormone receptor 1 (MCHR1) Set 5.

Sequence of Tyrosine-protein kinase Lck (P06239 whole entry): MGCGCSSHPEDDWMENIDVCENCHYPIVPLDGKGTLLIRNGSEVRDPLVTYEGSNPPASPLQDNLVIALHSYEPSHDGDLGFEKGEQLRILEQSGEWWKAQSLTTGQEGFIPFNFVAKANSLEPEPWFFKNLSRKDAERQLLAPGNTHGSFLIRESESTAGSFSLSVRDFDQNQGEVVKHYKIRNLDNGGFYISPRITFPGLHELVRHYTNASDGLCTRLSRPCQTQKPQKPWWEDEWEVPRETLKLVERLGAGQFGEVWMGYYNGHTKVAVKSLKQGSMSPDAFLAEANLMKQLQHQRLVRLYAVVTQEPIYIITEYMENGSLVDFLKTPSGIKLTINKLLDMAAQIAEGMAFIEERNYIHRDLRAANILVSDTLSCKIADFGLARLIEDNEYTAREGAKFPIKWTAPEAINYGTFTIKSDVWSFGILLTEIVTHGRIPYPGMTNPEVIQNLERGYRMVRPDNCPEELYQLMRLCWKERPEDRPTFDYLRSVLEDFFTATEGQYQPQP

Cc1ccc(F)c(NC(=O)Nc2ccc(-c3c(F)ccc4[nH]nc(N)c34)cc2)c1
Ki [1]: 0.631 µM (active)
Ki [2]: 0.001 µM (active)
Ki [3]: 0.398 µM (active)
Ki [4]: 1.58 µM (active)
Ki [5]: 0.501 µM (active)
Ki [6]: 0.000794 µM (active)
Ki [7]: 0.501 µM (active)
Ki [8]: 0.00794 µM (active)
Ki [9]: 0.001 µM (active)
Ki [10]: 0.501 µM (active)
Ki [11]: 0.000251 µM (active)
Ki [12]: 0.00126 µM (active)

O=C(O)C1CN(Cc2ccc(OCc3cccc(C(F)(F)F)c3)cc2F)C1
Ki [13]: 2.51 µM (active)
Ki [14]: 3.16 µM (active)

CCN1CCN(c2ccc(Nc3ncc(Cl)c(Nc4ccc(O)c(NC(C)=O)c4)n3)cc2)CC1
Ki [15]: 0.501 µM (active)
Ki [16]: 0.00794 µM (active)

N#CC(c1ccccc1)c1c(Br)cnn(Cc2cccc3ccccc23)c1=O (stereo not drawn)
IC50 [17]: 0.116 µM (active)
IC50 [18]: 16.4 µM (inactive)
